The structures appear in SMILES notation. In brackets after ≈: the same amount, converted by molar mass. Read-outs that look alike come from different tables or passages of the source. Marks after values point to notes of the source that are not given here. Positions of bridges follow the written chain, without caps; N, C: chain ends. Residues, ends and D or L forms follow the SMILES beside them. Chains are numbered I, II in the order given. *: point of attachment. Palmitoyl = CCCCCCCCCCCCCCCC(=O)*; Decanoyl = CCCCCCCCCC(=O)*; Octanoyl = CCCCCCCC(=O)*

The nature of data set [1]: in vitro. As to conditions: human. The data set is classed as cell-based. The method, then: Cells were plated at a density of 10,000 cells per well in a 96-well opaque white plate (SPL Life Sciences Inc. Korea). Test compounds of various concentrations and controls were added to appropriate wells such that the final volume is 100 μl in each well. After 4 hours of exposure to the test compounds, the plates were removed from 37° C. incubator and equilibrated to 22° C. for 30 minutes. One hundred microliters of CellTiter-Glo reagent (Promega Inc. USA) was added to each well and the ATP assay was performed according to manufacturer's instructions. Luminescence was assessed using a micro-plate reader (Tecan Infinite 200 Pro, Switzerland). The cells exposed to 1% Triton X-100 were used as a positive control. The percent cell viable of each compound was determined using the formula below (L=Luminescence detected):
% Viability=[(Lnegative controls)−(Lexperiments)]/[(Lnegative controls)−(Lpositive controls)]×100

Another data set has as its system Staphylococcus aureus. The data set is classed as cell-based. On the procedure: (§1) V2-dimer and all lipopeptides (FIG. 1A) used in this study were purchased from Mimotopes. All peptides were prepared by dissolving in sterile water to make 1000 μg/mL stock solutions. Minimum Inhibitory Concentration (MIC) determination was carried out in Mueller Hinton Broth (MHB) using the broth macro-dilution method as described by the Clinical and Laboratory Standards Institute (CLSI). Then, cation-adjusted MHB (CA-MHB) was used to prepare serial two fold dilutions of the compounds in test tubes. The concentration of the inoculums suspension was also adjusted to approximately 5×10^5 Colony Forming Units (CFU)/mL using MHB. Bacteria were incubated with the compounds for 24 hours at 35° C. prior to reading. In this study, Gram-positive strains used were Staphylococcus aureus DM4001 and Methicillin-resistant Staphylococcus aureus (MRSA) DM9808. Gram-negative strains used were Klebsiella pneumoniae DM4299, Pseudomonas aeruginosa ATCC23155 and Escherichia coli ATCC27922.
(§2) Methods used are as described in Example 1 above.

The subject of data set [2] is Methicillin-resistant Staphylococcus aureus (MRSA). The data set is classed as cell-based. The method, then:
as §1, §2

The subject of the next data set is Pseudomonas aeruginosa. The data set is classed as cell-based. The method, then:
as §1, §2

Data set [3] in a line: in vitro. The data set is classed as cell-based. As to conditions: human. On the procedure: The cytotoxicity of individual compounds screened was determined by the lactate dehydrogenase (LDH) assay. In brief, human corneal fibroblast cells were plated at a density of 10,000 cells per well in a 96-well opaque white plate (SPL Life Sciences Inc). Test compounds of various concentrations and controls were added to appropriate wells such that the final volume is 100 μl in each well. After 4 hours of exposure to the test compounds, the plates were removed from 37° C. incubator and equilibrated to 22° C. for 30 minutes. One hundred microliters of Cyto-TOX One reagent (Promega Inc. USA) was added to each well and the LDH assay was performed according to manufacturer's instructions. Fluorescence was assessed at an excitation wavelength of 560 nm and an emission wavelength of 590 nm using a micro-plate reader (Tecan Infinite 200 Pro, Switzerland). The cells exposed to 1% Triton X-100 were used as a positive control and treated as maximum releasing of LDH. The percent specific cytotoxicity of each compound was determined using the formula below (I=intensity):
% Cytotoxicity=[(Iexperiments)−(Inegative controls)]/[Ipositive controls)−(Inegative controls)]×100
The source holds these as a separate data set.

For data set [4], the system named is red blood cells (RBCs) of New Zealand white rabbits. As to the kind of experiment: in vitro. The data set is classed as cell-based, rabbit. On the procedure: (§3) Fresh red blood cells (RBCs) of New Zealand white rabbits were used for this experiment. The RBCs obtained were centrifuged at 3000 rpm for 10 min. Supernatant was removed and washed twice with sterile PBS Buffer (20 mM, 100 mM NaCl, pH 7). The RBCs were further diluted to 8% stock solution in PBS. Peptides were dissolved in PBS with desired stock concentrations. When compounds were mixed with RBCs, desired concentration of 4% RBCs was obtained. For C14V2D and C16V2D, they were dissolved in Dimethylformamide ([…]; DMF) with desired stock concentrations. When compounds were mixed with RBCs, desired concentration of 4% RBCs and 0.5% DMF was obtained. DMF concentration of <1% was used as it had negligible hemolytic activity on RBCs. The mixtures were added to 1.5 mL centrifuge tubes and incubated at 37° C. for 1 h. After incubation, the blood was centrifuged at 3000 rpm for 3 min at 4° C. 100 μL of the supernatant was transferred into transparent 96-well plate. The absorbance was measured at 576 nm using a microplate reader (TECAN Infinite 200M Pro). 2% Triton X-100 was used as positive control. PBS was used as negative controls. The amount of hemoglobin released was calculated using the following equation: […]

Data set [5] can be described thus: In vivo acute systemic toxicity test. To be noted: C57BL6, mouse, mice, read-out: Tolerate concentration. The method, then: (§4) Wild type C57BL6 (6-8 weeks old) (20-30 gram weigh) mice purchased from National University of Singapore were used for this study. All animals were utilized after 1 week acclimatization and put in air conditioned rooms with controlled temperature (23±2° C.), 12 hours light-dark cycle and humidity (55-60%). All animals were conducted in compliance with the Association for Research in Vision and Ophthalmology (ARVO) statement for the Use of Animals in Ophthalmic, and Vision Research, the guide for the Care and Use of laboratory animals (National Research Council) and under the supervision of Singhealth Experimental Medical Centre (SEMC). To investigate the corneal toxicity, three normal and healthy wild type mice had been chosen randomly and treated with 1 mg/ml and 3 mg/ml of C8V2D in 10 mM PBS. C8V2D was applied topically 5 times/day for 4 days. Cornea clarity had been checked by slit lamp microscopy for everyday follow-up to day 4 after application. To study the acute systemic toxicity, C8V2D was administrated via intravenous and intraperitoneal routes. Two mice have been chosen for each route and moitored carefully through 24 hours to observe and record any mortality, morbidity or toxicity signs. Gross necropsy would be done on any mortality or moribund animal.

Data set [6] is described as follows: In vivo topical (corneal) toxicity test. To be noted: C57BL6, mouse, topical or ocular, mice, 5 times/day for 4 days, read-out: Tolerate concentration. On the procedure: as §4
Data set [7] relates to Escherichia coli ATCC27922. Type of data set: cell-based. On the procedure: as §1
The subject of data set [8] is Klebsiella pneumoniae DM4299. Type of data set: cell-based. The method, then:
as §1

The next data set concerns S. aureus (DM4001). Kind of data set: Membrane damage, LIVE/DEAD BacLight assay. As to conditions: FIG. 7. Type of data set: cell-based, Staphylococcus aureus. On the procedure: The extent of bacterial membrane damage was assessed using LIVE/DEAD BacLight Bacterial Viability Kit (Molecular Probes, Invitrogen) which utilises both SYTO 9 green-fluorescent nucleic acid stain and the red-fluorescent nucleic acid stain, propidium iodide in their different ability to penetrate healthy bacterial cells. SYTO9 dye could penetrate bacteria with intact and damaged membrane but propidium iodide could only penetrate bacteria with damaged bacteria thereby causing a reduction in the SYTO 9 stain's fluorescence when both dyes are present. Thus, bacteria with intact cell membranes stain fluorescent green whereas bacteria with damaged membranes stain fluorescent red. Briefly, clinical isolate S. aureus (DM4001) was collected at an early exponential growth phase and washed twice with 0.9% saline solution (live culture). A portion of the culture was resuspended in 70% 2-propanol to prepare dead culture with fully permeabilised membrane. […] Using TECAN infinite 200 microplate reader, the wavelength for excitation was fixed at 485 nm to obtain the emission spectrum from 500 nm to 700 nm. The green to red ratio (G/R) was determined using the following formula: [formula] % of membrane damage was quantified using a G/R ratio standard curve generated using bacterial mixture of 0, 10%, 50%, 90% and 100% live culture suspension. […]

Data set [9] is described as follows: Dissolution in PBS for hemolytic assay. Type of data set: physicochemical. On the procedure: as §3
Data set [10] in a line: in vitro. As to conditions: New Zealand white, rabbit, pH 7. Type of data set: cell-based, rabbit. On the procedure:
as §3

In the case of `CCCCCCCC(=O)N[C@@H](CCCNC(=N)N)C(=O)NCC(=O)N[C@@H](CCCNC(=N)N)C(=O)N[C@@H](CCCCN)C(=O)N[C@H](C(=O)N[C@H](C(=O)N[C@@H](CCCNC(=N)N)C(=O)N[C@@H](CCCNC(=N)N)C(=O)NCCCC[C@H](NC(=O)[C@H](CCCNC(=N)N)NC(=O)[C@H](CCCNC(=N)N)NC(=O)[C@@H](NC(=O)[C@@H](NC(=O)[C@H](CCCCN)NC(=O)[C@H](CCCNC(=N)N)NC(=O)CNC(=O)[C@H](CCCNC(=N)N)NC(=O)CCCCCCC)C(C)C)C(C)C)C(=O)N[C@@H](CCCCN)C(=O)O)C(C)C)C(C)C` [Peptide C8-V2D, (C7H15—CO—NH—RGRKVVRR)2KK] (I: Octanoyl-RGRKVVRRKK-OH / II: Octanoyl-RGRKVVRR; amide I:9-II:C), the CC50 (in general, the concentration that lowers cell viability or growth by half) at 4 h in the data set “in vitro [1]” was greater than 2000 µM; in “in vitro [3]”, greater than 3000 µM. Also, the minimal inhibitory concentration (MIC) (commonly the lowest concentration found to suppress growth) is 2.46 µM (≈ 6.26 µg/mL) in the data set with Staphylococcus aureus; 1.23 µM (≈ 3.13 µg/mL) in [2]; 2.46 µM (≈ 6.26 µg/mL) with Pseudomonas aeruginosa; 4.92 µM (≈ 12.5 µg/mL) in [7]; 2.46 µM (≈ 6.26 µg/mL) in data set [8]. In [4] (red cells of rabbit, 1 h), this molecule had an HC10 greater than 2000 µg/mL. Further, the MTD at 24 h worked out at 6.25 mg/kg in data set [5] (Intravenous (i.v.)) and 100 mg/kg in data set [5] (ip, Intraperitoneal (i.p.)). Besides, in data set [6], the MTD at 96 h is no less than 3 mg/kg.

As to `CCCCCCCCCCCCCCCC(=O)N[C@@H](CCCNC(=N)N)C(=O)NCC(=O)N[C@@H](CCCNC(=N)N)C(=O)N[C@@H](CCCCN)C(=O)N[C@H](C(=O)N[C@H](C(=O)NCCCC[C@H](NC(=O)[C@@H](NC(=O)[C@@H](NC(=O)[C@H](CCCCN)NC(=O)[C@H](CCCNC(=N)N)NC(=O)CNC(=O)[C@H](CCCNC(=N)N)NC(=O)CCCCCCCCCCCCCCC)C(C)C)C(C)C)C(=O)N[C@@H](CCCCN)C(=O)O)C(C)C)C(C)C` [Peptide C16-V2D, (C15H31—CO—NH—RGRKVV)2KK] (I: Palmitoyl-RGRKVVKK-OH / II: Palmitoyl-RGRKVV; amide I:7-II:C; C-terminus assumed), the minimal inhibitory concentration (MIC) against Staphylococcus aureus was 36.13 µM (≈ 77.4 µg/mL); in data set [2] it was 18.07 µM (≈ 38.7 µg/mL); against Pseudomonas aeruginosa, greater than 36.13 µM; in data set [7], 9.03 µM (≈ 19.4 µg/mL); in data set [8] it was greater than 36.13 µM. For the same molecule, in the data set on S. aureus (DM4001), the membrane integrity entry was “reduced membrane integrity”. For the same molecule, in data set [4], the HC10 entry is given as “^c114.0 ± 37.9 ug/mL”. Besides, the “dissolution in PBS” value in [9] is reported as “^cValue in DMF. C16V2D could not dissolve in PBS”.

`CCCCCCCCCC(=O)N[C@@H](CCCNC(=N)N)C(=O)NCC(=O)N[C@@H](CCCNC(=N)N)C(=O)N[C@@H](CCCCN)C(=O)N[C@H](C(=O)N[C@H](C(=O)N[C@@H](CCCNC(=N)N)C(=O)N[C@@H](CCCNC(=N)N)C(=O)NCCCC[C@H](NC(=O)[C@H](CCCNC(=N)N)NC(=O)[C@H](CCCNC(=N)N)NC(=O)[C@@H](NC(=O)[C@@H](NC(=O)[C@H](CCCCN)NC(=O)[C@H](CCCNC(=N)N)NC(=O)CNC(=O)[C@H](CCCNC(=N)N)NC(=O)CCCCCCCCC)C(C)C)C(C)C)C(=O)N[C@@H](CCCCN)C(=O)O)C(C)C)C(C)C` [Peptide C10-V2D, (C9H19—CO—NH—RGRKVVRR)2KK] (I: Decanoyl-RGRKVVRRKK-OH / II: Decanoyl-RGRKVVRR; amide I:9-II:C): the MIC with Staphylococcus aureus is 2.40 µM (≈ 6.24 µg/mL); in [2], 1.20 µM (≈ 3.12 µg/mL); with Pseudomonas aeruginosa, 2.40 µM (≈ 6.24 µg/mL); in [7], 4.80 µM (≈ 12.5 µg/mL); in data set [8], 2.40 µM (≈ 6.24 µg/mL). For the same molecule, the HC10 in data set [4] is >2000^a ug/mL. The hemolysis at 1 h, 20 mg/mL in the data set “in vitro [10]” was 3.3%.

Source of the values: patent US20150231199A1, “PEPTIDES AND THEIR USES” (priority 2012, published 2015).
